Assay [1] relates to 1-methylhydantoinase. Nature of the assay: Michaelis constants of 1-methylhydantoinase. As to conditions: pH 7.8. Type of assay: biochemical, Arthrobacter species DSM 2563.
Assay [2] deals with 1-methylhydantoinase. In words: Activators of 1-methylhydantoinase. Type of assay: biochemical, Arthrobacter species DSM 2563. The procedure: Relative activity in % (30 mmol/liter ammonium sulphate (AS)=100)
(§1) The activity determination was carried out as follows: […]
(§2) 2. 1-Methylhydantoin solution: 10 mmol/liter
(§3) Wavelength 546 mn; T=25° C.; light path 1 cm.; final volume 2.03 ml.; extinction coefficient of the dye formed=13 cm^2 /μmol. […]
(§4) ^++ For the investigation according to Points 2, 3b, 4, 5 and 6 given
(§5) 4. Calculation: [formula] Remark: ΔA/min. must not to be more than 0.66; otherwise dilute sample. Lag phase about 5 minutes.

Assay [3] deals with 1-methylhydantoinase. In words: Enzymatic colour test for the determination of creatinine. Format: biochemical. The text has this:
1. Enzymatic colour tetst for the determination of 1-methylhydantoin (1-methylhydantoinase/N-carbamoylsarcosinamidohydrolase/sarcosine oxidase reaction with peroxidase/4-aminoantipyrine/2,4,6-tribromo-3-hydroxybenzoicacid colour indicator system) […]
Corresponding to reagent 1.1. of Example 5, however with the addition of creatinine iminohydrolase, 2 U/ml. (final concentration).
Corresponding to Point 1.2 of Example 5 but, as sample, there are used aqueous creatinine solutions (0.0877 to 1.754 mmol/liter) and the incubation period for P and RL is prolonged to 20 minutes.

The subject of assay [4] is 1-methylhydantoinase. Nature of the assay: Nucleotide specificity of 1-methylhydantoinase (via carbamoylsarcosinamidohydrolase + sarcosine oxidase). Conditions: nucleotide 4 mmol/liter. Format: biochemical, Arthrobacter species DSM 2563. The procedure:
Relative activity in % (ATP=100) determined via the reaction sequence catalyzed by carbamoylsarcosinamidohydrolase+sarcosine oxidase:
as §1, §2, §3, §4, §5

Assay [5] deals with 1-methylhydantoinase. Nature of the assay: Inhibitors of 1-methylhydantoinase. Format: biochemical, Arthrobacter species DSM 2563. Conditions: for relative activity %: 7.5 mM Mg++ in the reaction mixture. As to the method:
as §1, §2, §3, §4, §5

Assay [6] has as its system 1-methylhydantoinase. Nature of the assay: Metal ion dependence of 1-methylhydantoinase activity. Type of assay: biochemical, Arthrobacter species DSM 2563. The procedure: Relative activity in % (5 mmol/liter magnesium chloride=100)
as §1
2. 1-Methylhydantoin solution: 10 mmol/liter […]
as §4, §5

The mark [7] stands for this setting: activator substance 30 mmol/liter.

Read-outs that look alike come from different tables or passages of the source.

For orientation: Km means the substrate concentration at which the rate is half of its maximum. For orientation: inhibition means the share of the control response that was lost under treatment.

Turning to `CN1CC(=O)NC1=O` [1-methylhydantoin], the Km in the assay with 1-methylhydantoinase [1] (0.15 mol/liter TES, via ATP, read-out: Km 1-methylhydantoin) came out at 20 µM.
As to `[Cl-].[Na+]` [NaCl], the “Relative activity in % (30 mmol/liter ammonium sulphate (AS)=100)” value in the assay on 1-methylhydantoinase [2] (setting [7]) was 41%.
In the case of `CN(CC(=O)O)C(=N)N` [creatine], in the assay with 1-methylhydantoinase [3] (creatine solution (884 μmol/liter) as sample instead of creatinine, test batch 8.2), the colour reaction result was “no colour reaction”.
Take `CC(=O)O` [NH4 acetate]: the “Relative activity in % (30 mmol/liter ammonium sulphate (AS)=100)” value in the assay on 1-methylhydantoinase [2] (setting [7]) amounted to 98%.
As for `O=P([O-])([O-])OP(=O)([O-])OP(=O)([O-])[O-].[Na+].[Na+].[Na+].[Na+].[Na+]` [Na tripolyphosphate], the “Relative activity in % (ATP=100)” value with 1-methylhydantoinase [4] was found to be 0%.
Still for that read-out and setting: the result for `O=P(O)(O)OP(=O)(O)O` [PPi, pyrophosphate] reads 0%; that for `Cc1cn([C@H]2C[C@H](O)[C@@H](COP(=O)(O)OP(=O)(O)OP(=O)(O)O)O2)c(=O)[nH]c1=O` [TTP], 0%.
Take `N.N.O=S(=O)(O)O` [(NH4)2 SO4, ammonium sulphate]: the “Relative activity in % (30 mmol/liter ammonium sulphate (AS)=100)” value with 1-methylhydantoinase [2] (setting [7]) was determined as 100%; with 1-methylhydantoinase [2] (activator substance 10 mol/liter) it was 95%.
With `O=c1ccn([C@@H]2O[C@H](COP(=O)(O)OP(=O)(O)OP(=O)(O)O)[C@@H](O)[C@H]2O)c(=O)[nH]1` [UTP], the “Relative activity in % (ATP=100)” value with 1-methylhydantoinase [4] is 0%.
Regarding `[F-].[Na+]` [NaF], in the assay on 1-methylhydantoinase [5], the “Inhibition (in words)” value is “Significant inhibition”. The inhibition in the assay with 1-methylhydantoinase [5] (1×10^-2 mol/liter) came to 100%.
`O=S(=O)([O-])[O-].[Li+].[Li+]` [Li2 SO4]: the “Relative activity in % (30 mmol/liter ammonium sulphate (AS)=100)” value in the assay on 1-methylhydantoinase [2] (setting [7]) is reported as 40%.
On the same count and under the same terms, for `O=S(=O)([O-])[O-].[Na+].[Na+]` [Na2 SO4] the value was 39%.
On to `CN1CC(=O)NC1=N` [creatinine], for which the colour reaction result in the assay with 1-methylhydantoinase [3] (creatinine iminohydrolase omitted from Reagent 8.1) was “no colour reaction”.
As for `[Cl-].[Cl-].[Mg+2]` [MgCl2, magnesium chloride], the “Relative activity in % (5 mmol/liter magnesium chloride=100)” value in the assay on 1-methylhydantoinase [6] (metal salt 1 mmol/liter) is recorded as 83%; in the assay on 1-methylhydantoinase [6] (metal salt 5 mmol/liter), 100%; with 1-methylhydantoinase [6] (metal salt 10 mmol/liter), 98%.
Consider `Nc1ncnc2c1ncn2[C@@H]1O[C@H](COP(=O)(O)O)[C@@H](O)[C@H]1O` [AMP], for which, in the assay with 1-methylhydantoinase [4], the “Relative activity in % (ATP=100)” value is given as 0%.
For the compound `[Cl-].[Cl-].[Zn+2]` [ZnCl2], the “Relative activity in % (5 mmol/liter magnesium chloride=100)” value with 1-methylhydantoinase [6] (metal salt 5 mmol/liter) is given as 24%.
For the compound Na hexametaphosphate, in the assay with 1-methylhydantoinase [4], the “Relative activity in % (ATP=100)” value is 0%.
Same read-out and setting: the result for `Nc1nc2c(ncn2[C@@H]2O[C@H](COP(=O)(O)OP(=O)(O)OP(=O)(O)O)[C@@H](O)[C@H]2O)c(=O)[nH]1` [GTP] reads 7%.
In the case of `O=S(=O)([O-])[O-].[K+].[K+]` [K2 SO4], the “Relative activity in % (30 mmol/liter ammonium sulphate (AS)=100)” value in the assay with 1-methylhydantoinase [2] (setting [7]) is listed as 59%.
The same measure, in the same setting: the result for `O=C(O)O` [NaHCO3] reads 40%.
For the compound `N` [NH4^+], in the assay with 1-methylhydantoinase [2], the “Activation (in words)” value is on record as “Significant activation”.
Regarding `Nc1ncnc2c1ncn2[C@@H]1O[C@H](COP(=O)(O)OP(=O)(O)O)[C@@H](O)[C@H]1O` [ADP], in the assay with 1-methylhydantoinase [4], the “Relative activity in % (ATP=100)” value came to 1%.
On to `Cl.N` [NH4 Cl, ammonium chloride], for which the “Relative activity in % (30 mmol/liter ammonium sulphate (AS)=100)” value with 1-methylhydantoinase [2] (setting [7]) was 91%.
Turning to `Nc1ccn([C@@H]2O[C@H](COP(=O)(O)OP(=O)(O)OP(=O)(O)O)[C@@H](O)[C@H]2O)c(=O)n1` [CTP], the “Relative activity in % (ATP=100)” value in the assay with 1-methylhydantoinase [4] amounted to 1.5%.
Take `[Cl][Mn][Cl]` [MnCl2]: in the assay on 1-methylhydantoinase [6] (metal salt 5 mmol/liter), the “Relative activity in % (5 mmol/liter magnesium chloride=100)” value came to 60%.
On to `Nc1ncnc2c1ncn2[C@@H]1O[C@H](COP(=O)(O)OP(=O)(O)OP(=O)(O)O)[C@@H](O)[C@H]1O` [ATP, adenosine-5'-triphosphate], for which, in the assay with 1-methylhydantoinase [4], the “Relative activity in % (ATP=100)” value was 100%. The Km in the assay on 1-methylhydantoinase [1] (TES 0.15 mol/liter, via sarcosine, read-out: Km ATP) turned out to be 800 µM.
For the compound `O=C(O)CN(CCN(CC(=O)O)CC(=O)O)CC(=O)O` [EDTA], the “Inhibition (in words)” value in the assay with 1-methylhydantoinase [5] was “Significant inhibition”. Also, the relative activity % in the assay with 1-methylhydantoinase [5] (EDTA 5 mol/liter (so in the source)) amounted to 100%; in the assay with 1-methylhydantoinase [5] (EDTA 10 mol/liter (so in the source)), 42%; in the assay with 1-methylhydantoinase [5] (EDTA 50 mol/liter (so in the source)), 2%.
